Measured values from article PMC2730633 (Bioorganic & medicinal chemistry letters, 2009).
Values belong to the compound of their own block, whether it stands above or below them.

Assays:
EphA7 = EphA7 (Homo sapiens, UniProt Q15375); assay: KinomeScan dose-response dissociation constant; type: binding; conditions: for inhibition of EphA7: KinomeScan binding
EphB1 = molecular target: T1, EphB1 (Homo sapiens, UniProt P54762); assay: KinomeScan dose-response dissociation constant; conditions: KinomeScan binding
T1 sequence (P54762 18-984): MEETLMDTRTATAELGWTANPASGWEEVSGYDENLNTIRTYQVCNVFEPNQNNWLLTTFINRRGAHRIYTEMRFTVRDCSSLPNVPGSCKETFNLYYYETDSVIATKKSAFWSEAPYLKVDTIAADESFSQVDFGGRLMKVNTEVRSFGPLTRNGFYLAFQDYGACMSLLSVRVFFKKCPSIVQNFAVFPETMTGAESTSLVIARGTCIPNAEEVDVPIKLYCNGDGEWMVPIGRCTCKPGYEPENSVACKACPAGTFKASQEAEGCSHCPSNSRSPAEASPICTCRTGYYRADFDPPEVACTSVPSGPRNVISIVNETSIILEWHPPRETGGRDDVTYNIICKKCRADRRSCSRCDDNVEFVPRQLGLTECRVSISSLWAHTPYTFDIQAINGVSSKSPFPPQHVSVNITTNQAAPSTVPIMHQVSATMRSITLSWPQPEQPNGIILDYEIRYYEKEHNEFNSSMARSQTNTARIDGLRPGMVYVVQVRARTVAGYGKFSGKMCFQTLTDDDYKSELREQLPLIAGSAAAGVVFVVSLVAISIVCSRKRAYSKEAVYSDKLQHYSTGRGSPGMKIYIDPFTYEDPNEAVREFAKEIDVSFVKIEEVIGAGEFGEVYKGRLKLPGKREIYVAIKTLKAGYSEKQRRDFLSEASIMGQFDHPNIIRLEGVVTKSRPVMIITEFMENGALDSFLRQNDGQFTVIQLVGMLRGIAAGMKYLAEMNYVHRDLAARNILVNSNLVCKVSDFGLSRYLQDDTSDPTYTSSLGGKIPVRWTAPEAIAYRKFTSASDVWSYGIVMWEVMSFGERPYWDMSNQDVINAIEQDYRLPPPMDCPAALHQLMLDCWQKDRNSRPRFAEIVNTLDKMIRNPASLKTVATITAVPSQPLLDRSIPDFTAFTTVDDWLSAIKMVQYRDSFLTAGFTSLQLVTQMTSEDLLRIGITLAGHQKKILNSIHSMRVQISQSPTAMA

Bcr-Abl = Bcr-Abl (Homo sapiens, UniProt P00519+P11274); assay: Tyrosine kinase transformed Ba/F3 cellular assay; type: cell-based; conditions: for cross reactivity with Bcr-Abl: Ba/F3 panel screen
Sequence of Bcr-Abl (P00519 28-1130 limits assumed, one chain of several): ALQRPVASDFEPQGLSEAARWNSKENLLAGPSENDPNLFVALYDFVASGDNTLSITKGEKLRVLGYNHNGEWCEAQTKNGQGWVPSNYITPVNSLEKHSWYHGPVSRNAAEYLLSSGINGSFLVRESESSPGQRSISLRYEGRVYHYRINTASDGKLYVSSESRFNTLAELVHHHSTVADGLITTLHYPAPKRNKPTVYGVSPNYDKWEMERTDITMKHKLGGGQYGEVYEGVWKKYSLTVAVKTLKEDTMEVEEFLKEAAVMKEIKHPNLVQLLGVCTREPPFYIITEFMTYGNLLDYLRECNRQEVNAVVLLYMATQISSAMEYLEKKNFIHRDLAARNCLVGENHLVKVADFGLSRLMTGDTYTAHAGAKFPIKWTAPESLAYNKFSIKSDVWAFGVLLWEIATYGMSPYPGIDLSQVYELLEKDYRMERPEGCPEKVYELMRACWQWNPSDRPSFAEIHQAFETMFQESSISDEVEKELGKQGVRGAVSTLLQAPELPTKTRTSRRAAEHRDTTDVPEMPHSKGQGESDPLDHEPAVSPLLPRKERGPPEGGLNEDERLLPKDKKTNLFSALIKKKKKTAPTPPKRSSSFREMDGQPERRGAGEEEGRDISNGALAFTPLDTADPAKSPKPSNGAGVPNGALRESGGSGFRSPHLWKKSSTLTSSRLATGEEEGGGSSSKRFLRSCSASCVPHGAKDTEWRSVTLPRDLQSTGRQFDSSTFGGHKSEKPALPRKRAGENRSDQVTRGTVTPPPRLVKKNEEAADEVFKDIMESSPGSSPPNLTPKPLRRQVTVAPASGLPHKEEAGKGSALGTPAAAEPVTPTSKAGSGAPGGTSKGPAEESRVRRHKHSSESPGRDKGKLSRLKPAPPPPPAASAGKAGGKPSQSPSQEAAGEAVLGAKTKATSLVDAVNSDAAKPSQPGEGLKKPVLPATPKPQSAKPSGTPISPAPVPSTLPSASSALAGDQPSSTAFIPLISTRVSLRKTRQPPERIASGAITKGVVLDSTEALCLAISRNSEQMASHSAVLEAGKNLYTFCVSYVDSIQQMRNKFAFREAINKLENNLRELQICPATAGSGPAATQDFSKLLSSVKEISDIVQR

EphA6 = molecular target: T2, EphA6 (Homo sapiens, UniProt Q9UF33); assay: KinomeScan dose-response dissociation constant; conditions: KinomeScan binding
T2 sequence (Q9UF33 23-1036): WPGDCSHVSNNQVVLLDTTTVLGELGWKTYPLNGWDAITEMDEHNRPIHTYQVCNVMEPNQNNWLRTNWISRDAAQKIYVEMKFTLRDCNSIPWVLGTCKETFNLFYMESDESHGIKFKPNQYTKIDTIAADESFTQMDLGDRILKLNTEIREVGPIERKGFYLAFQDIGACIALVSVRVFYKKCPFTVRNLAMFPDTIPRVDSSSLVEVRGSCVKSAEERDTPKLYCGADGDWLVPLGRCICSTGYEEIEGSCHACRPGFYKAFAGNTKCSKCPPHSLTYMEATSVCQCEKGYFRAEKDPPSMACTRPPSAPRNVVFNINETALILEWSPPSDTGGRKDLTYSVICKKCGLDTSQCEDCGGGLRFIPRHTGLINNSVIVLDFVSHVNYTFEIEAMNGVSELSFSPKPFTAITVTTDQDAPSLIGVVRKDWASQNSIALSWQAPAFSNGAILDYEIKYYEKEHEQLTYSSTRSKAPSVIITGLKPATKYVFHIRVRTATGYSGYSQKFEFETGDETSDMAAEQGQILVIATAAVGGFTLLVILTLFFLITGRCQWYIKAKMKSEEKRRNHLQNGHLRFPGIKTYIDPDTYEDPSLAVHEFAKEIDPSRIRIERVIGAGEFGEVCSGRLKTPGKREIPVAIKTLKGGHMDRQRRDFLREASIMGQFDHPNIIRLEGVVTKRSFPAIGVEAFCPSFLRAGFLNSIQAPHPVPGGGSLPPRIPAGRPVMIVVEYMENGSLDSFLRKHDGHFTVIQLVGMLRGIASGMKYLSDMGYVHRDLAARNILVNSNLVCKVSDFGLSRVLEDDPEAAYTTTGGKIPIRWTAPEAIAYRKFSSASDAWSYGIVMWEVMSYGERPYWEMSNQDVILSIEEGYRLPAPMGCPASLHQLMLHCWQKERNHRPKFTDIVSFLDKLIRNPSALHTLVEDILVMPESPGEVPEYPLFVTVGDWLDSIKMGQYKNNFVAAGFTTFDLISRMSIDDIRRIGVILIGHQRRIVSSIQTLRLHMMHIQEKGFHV

[1] = tested on: b-raf, CSF1R, DDR1, DDR2, EphA2, EphA5, EphA8, EphB1, EphB2, EphB3, Frk, Kit, Lck, p38α, p38β, PDGFRα, PDGFRβ, Raf1; assay: Ambit KinomeScan panel of 402 kinases, single concentration; type: binding; conditions: single concentration of 10 µM
Tel-Lyn = Tel-Lyn (Homo sapiens, UniProt P07948+P41212); assay: Tyrosine kinase transformed Ba/F3 cellular assay; type: cell-based; conditions: for cellular activity against Src-family kinases (Tel-Lyn): Ba/F3
Sequence of Tel-Lyn (P07948 247-501 limits assumed, one chain of several): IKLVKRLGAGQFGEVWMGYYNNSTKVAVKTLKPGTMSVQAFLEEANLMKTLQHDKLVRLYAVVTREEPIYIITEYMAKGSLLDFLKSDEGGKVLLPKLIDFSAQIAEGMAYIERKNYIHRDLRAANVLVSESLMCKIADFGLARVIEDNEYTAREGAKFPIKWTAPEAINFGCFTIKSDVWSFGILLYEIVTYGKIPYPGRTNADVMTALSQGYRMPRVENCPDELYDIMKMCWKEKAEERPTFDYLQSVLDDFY

Tel fusion of EphA3 = molecular target: T3, Tel fusion of EphA3 (Homo sapiens, UniProt P29320); assay: Tyrosine kinase transformed Ba/F3 cellular assay; type: cell-based; conditions: Ba/F3 cells transformed with Tel fusion of EphA3
T3 sequence (P29320 621-882): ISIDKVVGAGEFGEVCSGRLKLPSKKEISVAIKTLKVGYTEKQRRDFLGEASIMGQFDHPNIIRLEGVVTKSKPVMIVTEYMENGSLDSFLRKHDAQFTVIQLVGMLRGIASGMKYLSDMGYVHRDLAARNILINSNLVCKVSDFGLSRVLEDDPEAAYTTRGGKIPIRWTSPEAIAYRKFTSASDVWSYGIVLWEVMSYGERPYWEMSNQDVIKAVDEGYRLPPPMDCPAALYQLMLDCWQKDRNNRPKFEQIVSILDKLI
T3 sequence (P41212 40-124 partner): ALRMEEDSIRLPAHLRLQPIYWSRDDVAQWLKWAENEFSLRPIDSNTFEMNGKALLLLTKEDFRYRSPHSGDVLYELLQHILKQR

Tel-Src = Tel-Src (Homo sapiens, UniProt P12931+P41212); assay: Tyrosine kinase transformed Ba/F3 cellular assay; type: cell-based; conditions: for cellular activity against Src-family kinases (Tel-Src): Ba/F3
Sequence of Tel-Src (P12931 270-523 limits assumed, one chain of several): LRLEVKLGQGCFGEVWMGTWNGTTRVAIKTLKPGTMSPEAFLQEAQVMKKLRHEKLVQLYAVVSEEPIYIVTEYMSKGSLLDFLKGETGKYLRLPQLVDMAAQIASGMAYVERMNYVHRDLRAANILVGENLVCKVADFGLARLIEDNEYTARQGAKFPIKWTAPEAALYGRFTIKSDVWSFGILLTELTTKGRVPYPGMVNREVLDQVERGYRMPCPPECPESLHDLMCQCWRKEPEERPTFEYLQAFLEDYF

b-raf = b-raf (Homo sapiens, UniProt P15056); assay: Cellular activity against b-raf; type: cell-based
Sequence of b-raf (P15056 whole entry, species assumed): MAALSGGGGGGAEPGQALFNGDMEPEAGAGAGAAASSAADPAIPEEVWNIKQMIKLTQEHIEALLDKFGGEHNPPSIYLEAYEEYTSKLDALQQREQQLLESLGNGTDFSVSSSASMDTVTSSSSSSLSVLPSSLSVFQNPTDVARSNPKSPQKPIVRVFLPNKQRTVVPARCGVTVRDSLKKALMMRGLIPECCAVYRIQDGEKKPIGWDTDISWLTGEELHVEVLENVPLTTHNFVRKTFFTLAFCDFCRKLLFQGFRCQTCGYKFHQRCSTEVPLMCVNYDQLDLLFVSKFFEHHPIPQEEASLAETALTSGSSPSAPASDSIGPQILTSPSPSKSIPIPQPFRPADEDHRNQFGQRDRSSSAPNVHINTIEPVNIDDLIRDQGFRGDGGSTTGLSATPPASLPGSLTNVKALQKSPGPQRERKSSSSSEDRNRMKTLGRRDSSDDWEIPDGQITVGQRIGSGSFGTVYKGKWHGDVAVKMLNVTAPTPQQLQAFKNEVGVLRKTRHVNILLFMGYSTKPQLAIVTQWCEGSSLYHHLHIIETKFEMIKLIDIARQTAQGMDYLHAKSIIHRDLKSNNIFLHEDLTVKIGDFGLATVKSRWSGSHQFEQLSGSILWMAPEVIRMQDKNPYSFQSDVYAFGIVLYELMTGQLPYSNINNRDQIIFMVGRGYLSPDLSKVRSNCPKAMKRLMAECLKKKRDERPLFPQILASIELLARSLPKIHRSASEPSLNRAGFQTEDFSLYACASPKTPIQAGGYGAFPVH

Eph-family kinases = assay: Invitrogen SelectScreen biochemical kinase activity assay; conditions: [Km,app] ATP, starting concentration 10 µM
FGFR4 = FGFR4 (Homo sapiens, UniProt P22455); assay: Tyrosine kinase transformed Ba/F3 cellular assay; type: cell-based; conditions: Ba/F3 panel screen, printed FGFR2/3/4
Sequence of FGFR4 (P22455 467-755 limits assumed): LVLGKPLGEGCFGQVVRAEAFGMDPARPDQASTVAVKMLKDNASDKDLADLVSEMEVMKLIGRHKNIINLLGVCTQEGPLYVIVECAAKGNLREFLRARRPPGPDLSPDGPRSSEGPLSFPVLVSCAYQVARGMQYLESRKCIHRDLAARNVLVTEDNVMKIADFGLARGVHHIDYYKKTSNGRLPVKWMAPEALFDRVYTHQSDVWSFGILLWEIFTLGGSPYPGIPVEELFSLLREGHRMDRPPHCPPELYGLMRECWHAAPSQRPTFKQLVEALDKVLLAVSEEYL

FGFR3 = FGFR3 (Homo sapiens, UniProt P22607); assay: Tyrosine kinase transformed Ba/F3 cellular assay; type: cell-based; conditions: Ba/F3 panel screen, printed FGFR2/3/4
Sequence of FGFR3 (P22607 472-761 limits assumed): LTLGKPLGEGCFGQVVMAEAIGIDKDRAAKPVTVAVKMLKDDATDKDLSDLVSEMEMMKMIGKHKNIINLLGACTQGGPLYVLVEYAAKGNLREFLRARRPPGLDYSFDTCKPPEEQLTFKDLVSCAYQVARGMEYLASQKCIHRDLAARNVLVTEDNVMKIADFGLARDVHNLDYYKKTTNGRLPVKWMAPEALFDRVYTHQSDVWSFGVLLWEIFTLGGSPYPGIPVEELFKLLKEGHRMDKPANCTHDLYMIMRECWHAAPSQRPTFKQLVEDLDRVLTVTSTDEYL

FGFR2 = FGFR2 (Homo sapiens, UniProt P21802); assay: Tyrosine kinase transformed Ba/F3 cellular assay; type: cell-based; conditions: Ba/F3 panel screen, printed FGFR2/3/4
Sequence of FGFR2 (P21802 481-770 limits assumed, species assumed): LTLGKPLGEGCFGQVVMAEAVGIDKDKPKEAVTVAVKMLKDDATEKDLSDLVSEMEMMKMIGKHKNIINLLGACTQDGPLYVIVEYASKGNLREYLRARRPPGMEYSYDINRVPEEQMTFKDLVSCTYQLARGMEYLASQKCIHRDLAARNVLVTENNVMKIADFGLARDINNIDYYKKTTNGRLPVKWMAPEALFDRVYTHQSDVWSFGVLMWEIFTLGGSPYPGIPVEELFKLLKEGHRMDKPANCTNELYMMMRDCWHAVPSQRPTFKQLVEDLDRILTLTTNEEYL

EphB2 = molecular target: T4, EphB2 (Homo sapiens, UniProt P29323); conditions: proteomic and cellular screening approaches ref 10, 9; cited from earlier work
T4 sequence (P29323 19-1055): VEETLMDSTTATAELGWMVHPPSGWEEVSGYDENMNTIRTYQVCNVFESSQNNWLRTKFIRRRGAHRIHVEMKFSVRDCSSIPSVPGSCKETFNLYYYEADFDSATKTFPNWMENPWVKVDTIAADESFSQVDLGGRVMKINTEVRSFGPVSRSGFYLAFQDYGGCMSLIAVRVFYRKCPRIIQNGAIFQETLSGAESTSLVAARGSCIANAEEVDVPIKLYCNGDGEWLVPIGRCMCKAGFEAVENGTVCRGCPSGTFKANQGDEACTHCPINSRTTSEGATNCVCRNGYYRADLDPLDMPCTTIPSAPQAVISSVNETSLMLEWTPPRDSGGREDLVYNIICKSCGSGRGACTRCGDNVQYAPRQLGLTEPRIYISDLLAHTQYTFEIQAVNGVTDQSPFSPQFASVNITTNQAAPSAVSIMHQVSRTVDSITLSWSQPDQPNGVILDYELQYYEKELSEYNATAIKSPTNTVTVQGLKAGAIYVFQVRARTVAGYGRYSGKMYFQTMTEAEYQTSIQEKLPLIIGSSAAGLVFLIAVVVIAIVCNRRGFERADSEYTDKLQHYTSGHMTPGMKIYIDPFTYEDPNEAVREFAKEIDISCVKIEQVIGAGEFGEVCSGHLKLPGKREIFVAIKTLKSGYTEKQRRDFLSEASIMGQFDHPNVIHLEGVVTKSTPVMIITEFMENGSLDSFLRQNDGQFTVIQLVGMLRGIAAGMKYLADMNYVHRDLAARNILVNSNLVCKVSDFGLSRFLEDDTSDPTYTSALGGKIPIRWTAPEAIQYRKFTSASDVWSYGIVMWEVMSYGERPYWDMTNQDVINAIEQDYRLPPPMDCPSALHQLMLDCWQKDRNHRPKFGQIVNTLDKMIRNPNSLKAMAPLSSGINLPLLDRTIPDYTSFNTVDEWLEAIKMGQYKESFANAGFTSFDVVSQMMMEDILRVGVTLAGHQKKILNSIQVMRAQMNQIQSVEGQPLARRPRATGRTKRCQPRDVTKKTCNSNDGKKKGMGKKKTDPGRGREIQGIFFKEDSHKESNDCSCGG

[2] = tested on: Bcr-Abl threonine to isoleucine gatekeeper substitution; conditions: threonine to isoleucine substitution of the gatekeeper position ref 21; cited from earlier work

Sequence of EphA7 (Q15375 28-998, species assumed): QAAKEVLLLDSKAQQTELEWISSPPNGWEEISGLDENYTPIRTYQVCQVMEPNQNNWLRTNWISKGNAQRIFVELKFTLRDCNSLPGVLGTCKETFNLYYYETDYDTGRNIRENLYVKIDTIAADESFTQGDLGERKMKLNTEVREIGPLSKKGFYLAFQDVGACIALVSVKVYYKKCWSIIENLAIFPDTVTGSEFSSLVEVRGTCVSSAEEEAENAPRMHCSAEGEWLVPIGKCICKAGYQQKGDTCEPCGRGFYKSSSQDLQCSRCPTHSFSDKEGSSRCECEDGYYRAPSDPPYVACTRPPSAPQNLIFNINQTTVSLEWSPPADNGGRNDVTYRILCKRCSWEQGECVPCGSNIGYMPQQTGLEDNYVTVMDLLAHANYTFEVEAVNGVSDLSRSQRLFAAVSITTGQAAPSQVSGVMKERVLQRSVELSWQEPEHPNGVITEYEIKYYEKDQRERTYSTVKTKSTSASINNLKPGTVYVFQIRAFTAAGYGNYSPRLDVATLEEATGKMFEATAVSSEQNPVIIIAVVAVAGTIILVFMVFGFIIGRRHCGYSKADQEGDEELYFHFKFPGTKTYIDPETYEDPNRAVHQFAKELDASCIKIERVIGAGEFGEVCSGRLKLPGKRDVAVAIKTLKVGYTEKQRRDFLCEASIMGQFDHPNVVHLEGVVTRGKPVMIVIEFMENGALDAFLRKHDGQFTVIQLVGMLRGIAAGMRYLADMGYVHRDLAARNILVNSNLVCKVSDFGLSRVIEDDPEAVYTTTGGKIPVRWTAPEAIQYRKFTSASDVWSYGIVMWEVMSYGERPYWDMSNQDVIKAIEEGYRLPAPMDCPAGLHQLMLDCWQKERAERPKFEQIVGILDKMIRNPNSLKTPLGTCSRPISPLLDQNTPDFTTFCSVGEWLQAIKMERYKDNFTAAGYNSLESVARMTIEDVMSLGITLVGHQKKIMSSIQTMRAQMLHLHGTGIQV

EC50 (Tel-Lyn; Ba/F3 cells transformed with Tel fusion of Lyn): < 0.5 µM
EC50 (Bcr-Abl; Ba/F3 cells transformed with Bcr-Abl): < 0.5 µM
cross reactivity with Bcr-Abl (Bcr-Abl): cross reactivity
EC50 (Tel fusion of EphA3): < 0.5 µM
EC50 (Tel-Src): < 0.5 µM
Compound: CCN1CCN(Cc2ccc(NC(=O)c3ccc(C)c(NC(=O)c4cncc(-c5cccs5)c4)c3)cc2C(F)(F)F)CC1 [Compound 7]
selectivity profile (binding to kinases) [1]: inhibited all these kinases and many more

cross reactivity with FGFR4 (FGFR4): cross reactivity
cross reactivity with FGFR3 (FGFR3): cross reactivity
cross reactivity with FGFR2 (FGFR2): cross reactivity
Compound: Cc1ccc(C(=O)Nc2cccc(C(F)(F)F)c2)cc1Nc1[nH]cnc2ncnc1-2 [Compound 10]

Continued, compound first:

Compound: Cc1ccc(C(=O)Nc2cccc(C(F)(F)F)c2)cc1Nc1ccc2occc(=O)c2c1 [Compound 8]
inhibition of EphA7 (EphA7): not inhibited
inhibition of EphB1 (EphB1): not inhibited
cross reactivity with Bcr-Abl (Bcr-Abl): cross reactivity
inhibition of EphA6 (EphA6): not inhibited
selectivity profile (binding to kinases) [1]: binding to a common set of kinases

Compound: Cc1cn(-c2cc(NC(=O)c3ccc(C)c(NC(=O)c4ccno4)c3)cc(C(F)(F)F)c2)cn1 [Compound 6]
inhibition of EphA7 (EphA7): not inhibited
inhibition of EphB1 (EphB1): not inhibited
cellular activity against Src-family kinases (Tel-Lyn) (Tel-Lyn): did not exhibit significant cellular activity
cellular activity against b-raf (b-raf): did not exhibit significant cellular activity
inhibition of EphA6 (EphA6): not inhibited
cellular activity against Src-family kinases (Tel-Src) (Tel-Src): did not exhibit significant cellular activity
selectivity profile (binding to kinases) [1]: binding to a common set of kinases

Compound: Cc1ccc(C(=O)Nc2cccc(C(F)(F)F)c2)cc1Nc1cncc(C(N)=O)c1 [Compound 9]
affinity for EphA7 (EphA7): relatively low affinity
inhibition of EphA7 (EphA7): not inhibited
inhibition of EphB1 (EphB1): not inhibited
cellular activity against Src-family kinases (Tel-Lyn) (Tel-Lyn): did not exhibit significant cellular activity
cellular activity against b-raf (b-raf): did not exhibit significant cellular activity
selectivity and potency (IC50) (Eph-family kinases): good selectivity for Eph-family kinases with moderate potency
inhibition of EphA6 (EphA6): not inhibited
cellular activity against Src-family kinases (Tel-Src) (Tel-Src): did not exhibit significant cellular activity
selectivity profile (binding to kinases) [1]: binding to a common set of kinases

Compound: Cc1nc(Nc2ncc(C(=O)Nc3c(C)cccc3Cl)s2)cc(N2CCN(CCO)CC2)n1 [dasatinib]
EphB2 as target (EphB2): identified as a target

Compound: Cc1cn(-c2cc(NC(=O)c3ccc(C)c(Nc4nccc(-c5cccnc5)n4)c3)cc(C(F)(F)F)c2)cn1 [nilotinib]
EphB2 as target (EphB2): identified as a target
inhibition of Bcr-Abl gatekeeper mutation [2]: not inhibited
